# Test results from ChEMBL document CHEMBL4118146, “Design, synthesis and evaluation of substituted piperidine based KCNQ openers as novel antiepileptic agents” (Bioorg Med Chem Lett, 2018).
# Tests used:
# [1] = target: T1, Potassium voltage-gated channel subfamily KQT member 2 (Homo sapiens, UniProt O43526); experiment: Activation of KCNQ2 (unknown origin) expressed in CHO cells at 10 uM incubated for 20 mins in dark measured every 2 secs for 10 secs by fluorescence-based thallium influx assay relative to control; assay type: cell-based
# [2] = Cmax in Sprague-Dawley rat at 1 mg/kg, iv measured over 24 hrs by LC/MS/MS method; assay type: ADME, organism-based; set-up: dose 1 mg/kg, route intravenous; details: in vivo
# [3] = Half life in Sprague-Dawley rat at 1 mg/kg, iv measured over 24 hrs by LC/MS/MS method; assay type: ADME, organism-based; details: in vivo
# [4] = MRTlast in Sprague-Dawley rat at 1 mg/kg, iv measured over 24 hrs by LC/MS/MS method; assay type: ADME, organism-based; details: in vivo
# [5] = Clearance in Sprague-Dawley rat at 1 mg/kg, iv measured over 24 hrs by LC/MS/MS method; assay type: ADME, organism-based; details: in vivo
# [6] = AUClast in Sprague-Dawley rat at 1 mg/kg, iv measured over 24 hrs by LC/MS/MS method; assay type: ADME, organism-based; set-up: dose 1 mg/kg, time 0 - last, route intravenous; details: in vivo
# [7] = target: T1, Potassium voltage-gated channel subfamily KQT member 2; experiment: Activation of KCNQ2 (unknown origin) expressed in CHO cells at 10 uM after 10 mins by atomic absorption spectrophotometry-based Rb+ flow assay; assay type: cell-based
# [8] = Tmax in Sprague-Dawley rat at 1 mg/kg, iv measured over 24 hrs by LC/MS/MS method; assay type: ADME, organism-based; details: in vivo
# [9] = target: T1, Potassium voltage-gated channel subfamily KQT member 2; experiment: Activation of KCNQ2 (unknown origin) expressed in CHO cells at 10 uM incubated for 20 mins in dark measured every 2 secs for 10 secs by fluorescence-based thallium influx assay relative to retigabine; assay type: cell-based
# [10] = Apparent volume of distribution in Sprague-Dawley rat at 1 mg/kg, iv measured over 24 hrs by LC/MS/MS method; assay type: ADME, organism-based; details: in vivo, read-out: Vd(app)
# [11] = target: T1, Potassium voltage-gated channel subfamily KQT member 2; experiment: Activation of KCNQ2 (unknown origin) expressed in CHO cells assessed as conductivity (I/I0) at 10 uM by electrophysiological patch-clamp test; assay type: cell-based
# [12] = target: T1, Potassium voltage-gated channel subfamily KQT member 2; experiment: Activation of KCNQ2 (unknown origin) expressed in CHO cells assessed as half-maximum activation voltage left shift at 10 uM by electrophysiological patch-clamp test; assay type: cell-based
# T1 sequence (O43526 whole entry): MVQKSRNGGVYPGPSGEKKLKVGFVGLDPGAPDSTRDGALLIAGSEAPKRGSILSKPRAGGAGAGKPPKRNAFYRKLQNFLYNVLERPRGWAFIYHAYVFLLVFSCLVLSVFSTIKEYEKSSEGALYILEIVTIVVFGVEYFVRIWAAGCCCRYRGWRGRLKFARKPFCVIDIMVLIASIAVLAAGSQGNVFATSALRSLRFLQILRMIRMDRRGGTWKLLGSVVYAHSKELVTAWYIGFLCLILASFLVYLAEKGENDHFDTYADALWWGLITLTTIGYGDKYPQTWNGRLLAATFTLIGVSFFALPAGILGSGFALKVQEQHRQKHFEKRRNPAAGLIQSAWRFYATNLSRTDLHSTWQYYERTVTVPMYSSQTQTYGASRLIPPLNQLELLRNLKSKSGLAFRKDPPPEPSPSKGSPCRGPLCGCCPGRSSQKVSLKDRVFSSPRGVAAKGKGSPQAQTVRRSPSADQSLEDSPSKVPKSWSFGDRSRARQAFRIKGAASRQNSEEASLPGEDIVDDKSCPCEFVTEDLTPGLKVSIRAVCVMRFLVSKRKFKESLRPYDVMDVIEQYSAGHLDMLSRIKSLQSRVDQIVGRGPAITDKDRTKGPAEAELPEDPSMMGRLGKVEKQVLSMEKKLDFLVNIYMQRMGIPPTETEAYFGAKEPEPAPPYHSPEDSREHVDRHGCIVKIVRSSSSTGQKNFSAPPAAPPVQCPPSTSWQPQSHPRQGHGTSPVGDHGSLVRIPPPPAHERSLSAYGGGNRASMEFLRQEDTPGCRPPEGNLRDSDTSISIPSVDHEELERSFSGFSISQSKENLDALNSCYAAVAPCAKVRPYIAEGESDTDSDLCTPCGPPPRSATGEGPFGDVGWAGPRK
smiles,measurement,setting,value
Cc1cc(N2CCN(c3cccc(C(F)(F)F)c3)CC2)cc(C)c1NC(=O)CC(C)(C)C,Activity,[1],52.1%
Cc1cc(N2CCC(c3ccccc3F)CC2)cc(C)c1NC(=O)CC(C)(C)C,Activity,[1],44%
Cc1cc(N2CCC(c3ccccc3C(F)(F)F)CC2)cc(C)c1NC(=O)CC(C)(C)C,Activity,[1],-47.2%
Cc1cc(N2CCC(c3cccc(F)c3)CC2)cc(C)c1NC(=O)CC(C)(C)C,Activity,[1],152%
same,Cmax,[2],9.11 µg/mL
same,half-life,[3],1.38 h
same,MRT last at 24 h,[4],2.61 h
same,clearance,[5],0.12 L/h/kg
same,AUC(0-t) at 24 h,[6],8.36 µg·h/mL
same,EC50,[7],0.22 µM
same,Efficacy,[7],180%
same,Tmax,[8],1.8 min
same,fold change (FC),[9],3.7 to 42
same,Vd,[10],0.24 L/kg
Cc1cc(N2CCC(c3cccc(Cl)c3)CC2)cc(C)c1NC(=O)CC(C)(C)C,Activity,[1],168%
same,fold change (FC),[9],3.7 to 42
Cc1cc(N2CCC(N3CCCCC3)CC2)cc(C)c1NC(=O)CC(C)(C)C,Activity,[1],0.02%
Cc1cc(C2CCCCN2)cc(C)c1NC(=O)CC(C)(C)C (stereo not given),Activity,[1],0.83%
Cc1cc(N2CCN(c3ccccn3)CC2)cc(C)c1NC(=O)CC(C)(C)C,Activity,[1],0.28%
Cc1cc(CN2CCCCC2)cc(C)c1NC(=O)CC(C)(C)C,Activity,[1],10.3%
Cc1cc(N2CCC(c3ccncc3)CC2)cc(C)c1NC(=O)CC(C)(C)C,Activity,[1],29.7%
Cc1cc(N2CCC(c3cccc(C(F)(F)F)c3)CC2)cc(C)c1NC(=O)CC(C)(C)C,Activity,[1],149%
same,fold change (FC),[9],3.7 to 42
Cc1cc(N2CCC(c3cccnc3)CC2)cc(C)c1NC(=O)CC(C)(C)C,Activity,[1],42.6%
Cc1cc(CN2CCc3ccccc3C2)cc(C)c1NC(=O)CC(C)(C)C,Activity,[1],5.11%
CCOC(=O)Nc1ccc(NCc2ccc(F)cc2)cc1N [EZOGABINE],Activity,[1],40.2%
same,Ratio,[11],2.12
same,EC50,[7],0.35 µM
same,Efficacy,[7],210%
same,Activity,[12],40 mV
Cc1cc(N2CCC(c3ccccc3)CC2)cc(C)c1NC(=O)CC(C)(C)C,Activity,[1],0.63%
Cc1cc(N2CCC(=O)CC2)cc(C)c1NC(=O)CC(C)(C)C,Activity,[1],110%
same,EC50,[7],0.13 µM
same,Efficacy,[7],148%
Cc1cc(N2CCN(c3ccc(C(F)(F)F)cc3)CC2)cc(C)c1NC(=O)CC(C)(C)C,Activity,[1],88.3%
Cc1cc(N2CCCCC2)cc(C)c1NC(=O)CC(C)(C)C,Activity,[1],69.8%
Cc1cc(N2CCC(c3ccc(C(F)(F)F)cc3)CC2)cc(C)c1NC(=O)CC(C)(C)C,Activity,[1],41.2%
Cc1cc(N2CCC(c3ccc(Cl)cc3)CC2)cc(C)c1NC(=O)CC(C)(C)C,Activity,[1],88.3%
Cc1cc(N2CCC(N3CCOCC3)CC2)cc(C)c1NC(=O)CC(C)(C)C,Activity,[1],1.13%
Cc1cc(N2CCC(C)(C)CC2)cc(C)c1NC(=O)CC(C)(C)C,Activity,[1],100%
same,Ratio,[11],1.53
same,EC50,[7],1.58 µM
same,Efficacy,[7],210%
same,Activity,[12],25 mV
Cc1cc(CN2CCCc3ccccc32)cc(C)c1NC(=O)CC(C)(C)C,Activity,[1],139%
same,Ratio,[11],2.76
same,EC50,[7],0.33 µM
same,Efficacy,[7],160%
same,Activity,[12],13.3 mV
same,fold change (FC),[9],3.5
